Melting point data for 57 compounds are collected here from US7183276B2, “Azole compounds” (Takeda Pharmaceutical Company Limited, priority 2002, dated 2007).

With `CCOP(=O)(Cc1ccc(NC(=O)CCc2oc(Cl)nc2-c2ccc(Cl)cc2)cc1)OCC`, the melting point (usually the temperature, or range, at which the solid turns liquid) was in the range of 137 to 138 °C.
As for `CCOP(=O)(Cc1ccc(NC(=O)CCCc2oc(-n3cnc4ccccc43)nc2-c2ccc(Cl)cc2)c(C)c1)OCC`, the melting point lay in the range of 118 to 119 °C.
For `CCOP(=O)(OCC)c1ccc(NC(=O)CCCc2oc(-n3cnc4ccccc43)nc2-c2ccc(Cl)cc2)cc1`, the melting point was 162 to 163 °C.
As for `CCOP(=O)(OCC)c1ccc(NC(=O)CCc2oc(-n3cnc4ccccc43)nc2-c2ccc(Cl)cc2)cc1`, the melting point lay within 249 to 250 °C.
`CCOP(=O)(Cc1ccc(NC(=O)CCc2oc(C3CCCCC3)nc2-c2ccc(Cl)cc2)cc1)OCC` registered a melting point of 133 to 134 °C.
Under `CCOP(=O)(Cc1ccc(NC(=O)CCc2oc(Cc3ccccc3)nc2-c2ccc(Cl)cc2)cc1)OCC` stands 161 to 162 °C.
For `CCOP(=O)(Cc1ccc(NC(=O)CCc2oc(-n3cnc(C)c3C)nc2-c2ccc(Cl)cc2)cc1)OCC`, the melting point fell in the range of 179 to 180 °C.
The compound `CCOP(=O)(Cc1ccc(NC(=O)CCCc2oc(N3CCCC3)nc2-c2ccc(Cl)cc2)cc1)OCC` registered a melting point of 127 to 128 °C.
With `CCOP(=O)(Cc1ccc(NC(=O)CCc2oc(-c3ccc(F)cc3)nc2-c2ccc(Cl)cc2)cc1)OCC`, the melting point is 148 to 149 °C.
The value for `CCOP(=O)(Cc1ccc(NC(=O)CCc2sc(-n3cnc4ccccc43)nc2-c2ccccc2)cc1)OCC` was 142 to 143 °C; that for `CCOP(=O)(Cc1ccc(NC(=O)CCc2oc(-c3ccc4ccccc4c3)nc2-c2ccc(Cl)cc2)cc1)OCC` was 191 to 192 °C; that for `CCOP(=O)(Cc1ccc(NC(=O)/C=C/c2sc(-n3cnc4ccccc43)nc2C(C)(C)C)cc1)OCC` was 211 to 212 °C.
The value for `CCOP(=O)(Cc1ccc(NC(=O)/C=C/c2sc(-n3cnc4ccccc43)nc2C(C)C)cc1)OCC` was 198 to 199 °C; that for `CCOP(=O)(Cc1ccc(NC(=O)CCc2sc(-n3cnc4ccccc43)nc2C(C)(C)C)cc1)OCC` was 155 to 156 °C; that for `CCOP(=O)(Cc1ccc(NC(=O)Cc2sc(-n3cnc4ccccc43)nc2-c2ccc(Cl)cc2)cc1)OCC` was 154 to 155 °C.
Under `COP(=O)(Cc1ccc(NC(=O)CCCCCc2sc(-c3ccccc3)nc2-c2ccc(Cl)cc2)cc1)OC` stands 164 to 165 °C.
`CCOP(=O)(Cc1ccc(NC(=O)CCCCc2sc(-n3cnc4ccccc43)nc2-c2ccc(Cl)cc2)cc1)OCC` came in with a melting point of 168 to 169 °C.
With `CCOP(=O)(Cc1ccc(NC(=O)CCc2oc(-n3ccnc3)nc2-c2ccc(Cl)cc2)cc1)OCC`, the melting point was in the range of 196 to 197 °C.
Under `CCOP(=O)(Cc1ccc(NC(=O)CCc2sc(NC(=O)c3ccccn3)nc2-c2ccc(Cl)cc2)cc1)OCC` stands 184 to 185 °C.
In the case of `CCOP(=O)(Cc1ccc(NC(=O)CCc2sc(NC(=O)NC)nc2-c2ccc(Cl)cc2)cc1)OCC`, the melting point is 206 to 207 °C.
Compound `CCOP(=O)(Cc1ccc(NC(=O)CCc2sc(NC(=O)NCc3ccccc3)nc2-c2ccc(Cl)cc2)cc1)OCC` displayed a melting point of 144 to 145 °C.
Under `CCOP(=O)(Cc1ccc(NC(=O)CCc2sc(NC(=O)Nc3ccccc3)nc2-c2ccc(Cl)cc2)cc1)OCC` stands 175 to 176 °C; under `CCOP(=O)(Cc1ccc(NC(=O)CCc2sc(NS(=O)(=O)c3ccccc3)nc2-c2ccc(Cl)cc2)cc1)OCC`, 213 to 214 °C; under `CCOP(=O)(Cc1ccc(NC(=O)CCc2sc(NC(=S)NCc3ccccc3)nc2-c2ccc(Cl)cc2)cc1)OCC`, 202 to 203 °C.
Under `CCOP(=O)(Cc1ccc(NC(=O)CCc2sc(NC(=S)NC(=O)c3ccccc3)nc2-c2ccc(Cl)cc2)cc1)OCC` stands 208 to 209 °C; under `CCOP(=O)(Cc1ccc(NC(=O)CCc2oc(-n3cnc4ccccc43)nc2-c2ccccc2)cc1)OCC`, 148 to 149 °C; under `CCOP(=O)(Cc1ccc(NC(=O)CCc2oc(-c3ccc(OC)cc3)nc2-c2ccc(Cl)cc2)cc1)OCC`, 141 to 142 °C.
Compound `CCCc1nc(-c2ccc(Cl)cc2)c(CCC(=O)Nc2ccc(CP(=O)(OCC)OCC)cc2)o1` yielded a melting point of 108 to 109 °C.
Consider `CCOP(=O)(OCC)C(O)c1ccc(NC(=O)CCc2oc(-n3cnc4ccccc43)nc2-c2ccc(Cl)cc2)cc1` (stereo not drawn), for which the melting point is 171 to 172 °C.
Under `CCOP(=O)(OCC)C(OC)c1ccc(NC(=O)CCc2oc(-n3cnc4ccccc43)nc2-c2ccc(Cl)cc2)cc1` (stereo not drawn) stands 191 to 192 °C; under `CCOP(=O)(Cc1ccc(NC(=O)CCc2oc(Sc3ncccn3)nc2-c2ccc(Cl)cc2)cc1)OCC`, 146 to 147 °C; under `CCOP(=O)(OCC)C(F)c1ccc(NC(=O)CCc2oc(-n3cnc4ccccc43)nc2-c2ccc(Cl)cc2)cc1` (stereo not drawn), 152 to 155 °C.
In the case of `CCCc1nc(-c2ccc(Cl)cc2)c(CCC(=O)N2CCN(CC3CCN(C)CC3)CC2)o1.Cl.Cl`, the melting point turned out to be 218 °C.
`CCOP(=O)(Cc1ccc(NC(=O)Cc2oc(-c3ccccc3)nc2-c2ccc(Cl)cc2)cc1)OCC` returned a melting point of 173 to 174 °C.
Regarding `COP(=O)(Cc1ccc(NC(=O)CCc2oc(-c3ccccc3)nc2-c2ccc(Cl)cc2)cc1)OC`, the melting point lay within 153 to 154 °C.
For the compound `CCOP(=O)(Cc1ccc(NC(=O)CCc2oc(N3CCOCC3)nc2-c2ccc(Cl)cc2)cc1)OCC`, the melting point was 186 to 187 °C.
As for `CCOP(=O)(OCC)c1ccc(NC(=O)CCc2sc(-c3ccccc3)nc2-c2ccc(Cl)cc2)cc1`, the melting point fell in the range of 186 to 187 °C.
Compound `CCOP(=O)(Cc1ccc(NC(=O)CCc2ocnc2-c2ccc(Cl)cc2)cc1)OCC` yielded a melting point of 130 to 131 °C.
Under `CCOP(=O)(CCCNC(=O)CCc1oc(-n2cnc3ccccc32)nc1-c1ccc(Cl)cc1)OCC` stands 130 to 131 °C; under `NC(=O)CCc1oc(-n2cnc3ccccc32)nc1-c1ccc(Cl)cc1` [Example 8, 3-[2-(1H-benzimidazol-1-yl)-4-(4-chlorophenyl)-5-oxazolyl]propionamide], 265 to 266 °C.
Regarding `NC(=O)CCc1oc(N2CCOCC2)nc1-c1ccc(Cl)cc1` [Example 9, 3-[4-(4-chlorophenyl)-2-(4-morpholinyl)-5-oxazolyl]propionamide], the melting point was in the range of 180 to 181 °C.
The compound `Cc1ccc(Sc2nc(-c3ccc(Cl)cc3)c(CCC(N)=O)o2)cc1` [Example 10, 3-[4-(4-chlorophenyl)-2-[(4-methylphenyl)sulfanyl]-5-oxazolyl]propionamide] showed a melting point of 155 to 156 °C.
Compound `NC(=O)CCc1oc(C2CCCCC2)nc1-c1ccc(Cl)cc1` [Example 17, 3-[4-(4-chlorophenyl)-2-cyclohexyl-5-oxazolyl]propionamide] showed a melting point of 142 to 143 °C.
`NC(=O)CCc1oc(Cc2ccccc2)nc1-c1ccc(Cl)cc1` [Example 18, 3-[2-benzyl-4-(4-chlorophenyl)-5-oxazolyl]propionamide] gave a melting point of 169 to 170 °C.
The value for `Cc1ncn(-c2nc(-c3ccc(Cl)cc3)c(CCC(N)=O)o2)c1C` [Example 19, 3-[4-(4-chlorophenyl)-2-(4,5-dimethyl-1-imidazolyl)-5-oxazolyl]propionamide] was 232 to 233 °C; that for `NC(=O)CCc1oc(-c2ccc(F)cc2)nc1-c1ccc(Cl)cc1` [Example 23, 3-[4-(4-chlorophenyl)-2-(4-fluorophenyl)-5-oxazolyl]propionamide] was 212 to 213 °C.
On to `NC(=O)CCc1oc(-c2ccc3ccccc3c2)nc1-c1ccc(Cl)cc1` [Example 24, 3-[4-(4-chlorophenyl)-2-(2-naphthyl)-5-oxazolyl]propionamide], for which the melting point was 206 to 207 °C.
The value for `NC(=O)CCc1oc(-c2cccs2)nc1-c1ccc(Cl)cc1` [Example 25, 3-[4-(4-chlorophenyl)-2-(2-thienyl)-5-oxazolyl]propionamide] was 226 to 227 °C; that for `COc1ccc(-c2nc(-c3ccc(Cl)cc3)c(CCC(N)=O)o2)cc1` [Example 28, 3-[4-(4-chlorophenyl)-2-(4-methoxyphenyl)-5-oxazolyl]propionamide] was 215 to 216 °C; that for `CCCc1nc(-c2ccc(Cl)cc2)c(CCC(N)=O)o1` [Example 29, 3-[4-(4-chlorophenyl)-2-propyl-5-oxazolyl]propionamide] was 150 to 151 °C.
Under `NC(=O)CCc1oc(N2CCN(c3ccccc3)CC2)nc1-c1ccc(Cl)cc1` [Example 31, 3-[4-(4-chlorophenyl)-2-(4-phenyl-1-piperazinyl)-5-oxazolyl]propionamide] stands 187 to 188 °C; under `NC(=O)CCc1oc(Sc2ncccn2)nc1-c1ccc(Cl)cc1` [Example 33, 3-[4-(4-chlorophenyl)-2-(2-pyrimidinylsulfanyl)-5-oxazolyl]propionamide], 194 to 195 °C; under `NC(=O)CCc1oc(Sc2ccccn2)nc1-c1ccc(Cl)cc1` [Example 36, 3-[4-(4-chlorophenyl)-2-(2-pyridinylsulfanyl)-5-oxazolyl]propionamide], 162 to 163 °C.
Under `NC(=O)CCc1oc(Oc2ccccc2)nc1-c1ccc(Cl)cc1` [Example 38, 3-[4-(4-chlorophenyl)-2-phenoxy-5-oxazolyl]propionamide] stands 139 to 140 °C; under `O=C(CCc1oc(-c2ccccc2)nc1-c1ccc(Cl)cc1)Nc1cccnc1` [Example 41, 3-[4-(4-chlorophenyl)-2-phenyl-5-oxazolyl]-N-(3-pyridinyl)propionamide], 204 to 205 °C.
In turn, `COC(=O)c1ccc(NC(=O)CCc2oc(-c3ccccc3)nc2-c2ccc(Cl)cc2)cc1` [Example 42, 3-[4-(4-chlorophenyl)-2-phenyl-5-oxazolyl]-N-[4-(methoxycarbonyl)phenyl]propionamide] displayed a melting point of 198 to 200 °C.
As to `NC(=O)CCc1oc(-c2ccccc2)nc1-c1ccc(Cl)cc1` [Example 43, 3-[4-(4-chlorophenyl)-2-phenyl-5-oxazolyl]propionamide], the melting point is 207 to 208 °C.
